# Reference: US7348350B2, “Pyrazolyl biphenyl carboxamides and the use thereof for controlling undesirable microorganisms” (Bayer CropScience AG, priority 2000, dated 2008)
# How the values were obtained:
# Alternaria solani = assay: Alternaria test (tomato)/protective; format: in vivo; settings: protective, application rate 750 g/ha, evaluation 7 days after inoculation
# Protocol: (§1) To produce a suitable preparation of active compound, 1 part by weight of active compound is mixed with the stated amounts of solvent and emulsifier, and the concentrate is diluted with water to the desired concentration.
# To test for protective activity, young tomato plants are sprayed with the preparation of active compound at the stated application rate. 1 day after the treatment, the plants are inoculated with a spore suspension of Alternaria solani and then remain at 100% rel. humidity and 20° C. for 24 h. The plants then remain at 96% rel. atmospheric humidity and a temperature of 20° C.
# Evaluation is carried out 7 days after the inoculation. 0% means an efficacy which corresponds to that of the control, whereas an efficacy of 100% means that no infection is observed.
# [1] = logP by HPLC on reversed-phase column (C 18), EEC Directive 79/831 Annex V.A8; format: physicochemical; settings: reversed-phase HPLC column (C 18)
# Protocol: The logP values given in the Preparation Examples and Tables above were determined in accordance with EEC Directive 79/831 Annex V.A8 by HPLC (High Performance Liquid Chromatography) on a reversed-phase column (C 18). Temperature: 43° C.
# In the acidic range, the determination was carried out at pH 2.3 using the mobile phases 0.1% aqueous phosphoric acid and acetonitrile; linear gradient from 10% acetonitrile to 90% acetonitrile (marked ^a) in the Table).
# In the neutral range, the determination was carried out at pH 7.5 using the mobile phases 0.01 molar aqueous phosphate buffer solution and acetonitrile; linear gradient from 10% acetonitrile to 90% acetonitrile (marked ^b) in the Table).
# Podosphaera leucotricha = assay: Podosphaera test (apple)/protective; format: in vivo; settings: 240 h, protective, application rate 100 g/ha, evaluation 10 days after inoculation, read-out: % efficacy
# Protocol: as §1
# (§2) To test for protective activity, young plants are sprayed with the preparation of active compound at the stated application rate. After the spray coating has dried on, the plants are inoculated with an aqueous spore suspension of the apple mildew pathogen Podosphaera leucotricha. The plants are then placed in a greenhouse at approximately 23° C. and a relative atmospheric humidity of approximately 70%.
# (§3) Evaluation is carried out 10 days after the inoculation. 0% means an efficacy which corresponds to that of the control, whereas an efficacy of 100% means that no infection is observed.
# Venturia inaequalis = assay: Venturia test (apple)/protective; format: in vivo; settings: 288 h, protective, application rate 100 g/ha, evaluation 12 days after inoculation, read-out: % efficacy
# Protocol: To produce a suitable preparation of active compound, 1 part by weight of active compound is mixed with the stated amount of solvent and emulsifier, and the concentrate is diluted with water to the desired concentration.
# To test for protective activity, young plants are sprayed with the preparation of active compound at the stated application rate. After the spray coating has dried on, the plants are inoculated with an aqueous conidia suspension of the apple scab pathogen Venturia inaequalis and then remain in an incubation cabin at approximately 20° C. and 100% relative atmospheric humidity for 1 day.
# The plants are then placed in a greenhouse at approximately 21° C. and a relative atmospheric humidity of approximately 90%.
# Evaluation is carried out 12 days after the inoculation. 0% means an efficacy which corresponds to that of the control, whereas an efficacy of 100% means that no infection is observed.
# Sphaerotheca fuiginea = assay: Sphaerotheca test (cucumber)/protective; format: in vivo; settings: Cucumis sativus, 240 h, protective, application rate 100 g/ha, evaluation 10 days after inoculation, read-out: % efficacy
# Protocol: as §1
# as §2, with “Sphaerotheca fuiginea.” for “the apple mildew pathogen Podosphaera leucotricha.”
# as §3
# Puccinia recondita = assay: Puccinia test (wheat)/protective; format: in vivo; settings: protective, application rate 250 g/ha, evaluation 10 days after inoculation
# Protocol: as §1
# To test for protective activity, young plants are sprayed with the preparation of active compound at the stated application rate. After the spray coating has dried on, the plants are sprayed with a conidia suspension of Puccinia recondita. The plants remain in an incubation cabin at 20° C. and 100% relative atmospheric humidity for 48 hours.
# The plants are then placed in a greenhouse at a temperature of approximately 20° C. and a relative atmospheric humidity of 80% to promote the development of rust pustules.
# as §3
# [2] = acidic range, pH 2.3, 0.1% aqueous phosphoric acid and acetonitrile, 43° C. (marked a)
smiles,measurement,setting,value
"CO/N=C/c1ccc(-c2cc(F)cc(F)c2NC(=O)c2c(C)nn(C)c2F)cc1 [Example 2, N-{3,5-difluoro-4′-[(methoxyimino)methyl]-1,1′-biphenyl-2-yl}-5-fluoro-1,3-dimethyl-1H-pyrazole-4-carboxamide]",% efficacy,Alternaria solani,90%
CO/N=C/c1cccc(-c2ccccc2NC(=O)c2c(C)nn(C)c2F)c1 [Example 5],% efficacy,Alternaria solani,90%
CO/N=C(\C)c1cccc(-c2ccccc2NC(=O)c2c(C)nn(C)c2F)c1 [Example 7],chromatographic logP,[1]; [2],3.2
same,% efficacy,Alternaria solani,100%
CO/N=C/c1ccc(-c2ccc(F)cc2NC(=O)c2c(C)nn(C)c2F)cc1 [Example 8],chromatographic logP,[1]; [2],3.39
same,pest or weed control at 100 g/ha,Podosphaera leucotricha,98%
same,pest or weed control at 100 g/ha,Venturia inaequalis,99%
CO/N=C/c1ccc(-c2ccccc2NC(=O)c2c(C)nn(C)c2F)c(Cl)c1 [Example 10],chromatographic logP,[1]; [2],3.26
CCO/N=C/c1ccc(-c2cc(F)cc(F)c2NC(=O)c2c(C)nn(C)c2F)cc1 [Example 11],chromatographic logP,[1]; [2],3.05
same,pest or weed control at 100 g/ha,Podosphaera leucotricha,100%
same,pest or weed control at 100 g/ha,Sphaerotheca fuiginea,93%
same,pest or weed control at 100 g/ha,Venturia inaequalis,100%
Cc1nn(C)c(F)c1C(=O)Nc1ccccc1-c1ccc(/C=N/OCc2cccnc2)cc1 [Example 12],chromatographic logP,[1]; [2],1.75
Cc1nn(C)c(F)c1C(=O)Nc1ccccc1-c1ccc(/C=N/OCc2ccccc2)cc1 [Example 13],chromatographic logP,[1]; [2],4.02
Cc1nn(C)c(F)c1C(=O)Nc1c(F)cc(F)cc1-c1ccc(/C=N/OCc2ccccc2)cc1 [Example 14],chromatographic logP,"[1]; neutral range, pH 7.5, 0.01 molar aqueous phosphate buffer and acetonitrile, 43° C. (marked b)",3.68
Cc1nn(C)c(F)c1C(=O)Nc1c(F)cc(F)cc1-c1ccc(/C=N/OCc2ccccn2)cc1 [Example 15],chromatographic logP,[1]; [2],1.81
Cc1nn(C)c(F)c1C(=O)Nc1ccccc1-c1ccc(/C=N/OCc2ccncc2)cc1 [Example 16],chromatographic logP,[1]; [2],1.72
Cc1nn(C)c(F)c1C(=O)Nc1ccccc1-c1ccc(/C=N/OCc2ccccn2)cc1 [Example 17],chromatographic logP,[1]; [2],1.89
Cc1nn(C)c(F)c1C(=O)Nc1c(F)cc(F)cc1-c1ccc(/C=N/OCc2cccnc2)cc1 [Example 18],chromatographic logP,[1]; [2],1.69
Cc1nn(C)c(F)c1C(=O)Nc1c(F)cc(F)cc1-c1ccc(/C=N/OCc2ccncc2)cc1 [Example 19],chromatographic logP,[1]; [2],1.6
C/C(=N\OC(C)C)c1ccc(-c2ccccc2NC(=O)c2c(C)nn(C)c2F)cc1 [Example 20],pest or weed control at 100 g/ha,Podosphaera leucotricha,95%
same,pest or weed control at 100 g/ha,Sphaerotheca fuiginea,77%
same,pest or weed control at 100 g/ha,Venturia inaequalis,100%
same,% efficacy,Puccinia recondita,100%
CCO/N=C(\C)c1ccc(-c2ccccc2NC(=O)c2c(C)nn(C)c2F)cc1 [Example 22],pest or weed control at 100 g/ha,Podosphaera leucotricha,99%
same,pest or weed control at 100 g/ha,Sphaerotheca fuiginea,95%
same,pest or weed control at 100 g/ha,Venturia inaequalis,100%
same,% efficacy,Puccinia recondita,100%
Cc1nn(C)c(F)c1C(=O)Nc1ccccc1-c1ccc(/C=N/OC(C)C)cc1 [Example 23],pest or weed control at 100 g/ha,Podosphaera leucotricha,100%
same,pest or weed control at 100 g/ha,Sphaerotheca fuiginea,95%
same,pest or weed control at 100 g/ha,Venturia inaequalis,100%
Cc1nn(C)c(F)c1C(=O)Nc1ccccc1-c1ccc(/C=N/OCCCl)cc1 [Example 25],chromatographic logP,[1]; [2],3.38
CO/N=C/c1ccc(-c2ccccc2NC(=O)c2c(C)nn(C)c2F)c(C)c1 [Example 26],chromatographic logP,[1]; [2],3.4
same,pest or weed control at 100 g/ha,Podosphaera leucotricha,100%
same,pest or weed control at 100 g/ha,Sphaerotheca fuiginea,95%
same,pest or weed control at 100 g/ha,Venturia inaequalis,100%
same,% efficacy,Puccinia recondita,100%
CO/N=C/c1ccc(-c2ccccc2NC(=O)c2c(C)nn(C)c2F)cc1OC [Example 27],chromatographic logP,[1]; [2],3.15
CO/N=C/c1ccc(-c2cc(Cl)ccc2NC(=O)c2c(C)nn(C)c2F)cc1 [Example 28],chromatographic logP,[1]; [2],3.67
CO/N=C/c1ccc(-c2c(C)cccc2NC(=O)c2c(C)nn(C)c2F)cc1 [Example 29],chromatographic logP,[1]; [2],3.39
same,pest or weed control at 100 g/ha,Podosphaera leucotricha,94%
same,pest or weed control at 100 g/ha,Sphaerotheca fuiginea,83%
same,pest or weed control at 100 g/ha,Venturia inaequalis,100%
CO/N=C/c1ccc(-c2ccc(C)cc2NC(=O)c2c(C)nn(C)c2F)cc1 [Example 31],chromatographic logP,[1]; [2],3.34
CO/N=C/c1ccc(-c2ccc(OC)cc2NC(=O)c2c(C)nn(C)c2F)cc1 [Example 32],chromatographic logP,[1]; [2],3.1
CO/N=C/c1ccc(-c2ccc(Cl)cc2NC(=O)c2c(C)nn(C)c2F)cc1 [Example 33],chromatographic logP,[1]; [2],3.79
CO/N=C/c1ccc(-c2cc(C)c(F)cc2NC(=O)c2c(C)nn(C)c2F)cc1 [Example 34],chromatographic logP,[1]; [2],3.74
CO/N=C/c1ccc(-c2cc(Cl)cc(F)c2NC(=O)c2c(C)nn(C)c2F)cc1 [Example 35],chromatographic logP,[1]; [2],3.11
CO/N=C/c1ccc(-c2cc(F)c(F)cc2NC(=O)c2c(C)nn(C)c2F)cc1 [Example 36],chromatographic logP,[1]; [2],3.48
CO/N=C/c1ccc(-c2cc(F)ccc2NC(=O)c2c(C)nn(C)c2F)cc1 [Example 37],chromatographic logP,[1]; [2],3.01
same,pest or weed control at 100 g/ha,Podosphaera leucotricha,100%
same,pest or weed control at 100 g/ha,Sphaerotheca fuiginea,77%
same,pest or weed control at 100 g/ha,Venturia inaequalis,100%
CCO/N=C/c1ccc(-c2ccccc2NC(=O)c2c(C)nn(C)c2F)cc1OC [Example 38],chromatographic logP,[1]; [2],3.58
CCO/N=C/c1ccc(-c2ccccc2NC(=O)c2c(C)nn(C)c2F)c(C)c1 [Example 39],chromatographic logP,[1]; [2],3.91
same,pest or weed control at 100 g/ha,Podosphaera leucotricha,100%
same,pest or weed control at 100 g/ha,Sphaerotheca fuiginea,97%
same,pest or weed control at 100 g/ha,Venturia inaequalis,100%
CO/N=C/c1ccc(-c2cc(C(F)(F)F)cc(Cl)c2NC(=O)c2c(C)nn(C)c2F)cc1 [Example 40],chromatographic logP,[1]; [2],4.63
CO/N=C/c1cccc(-c2ccc(Cl)cc2NC(=O)c2c(C)nn(C)c2F)c1 [Example 41],chromatographic logP,[1]; [2],3.89
CO/N=C/c1cccc(-c2ccc(C(F)(F)F)cc2NC(=O)c2c(C)nn(C)c2F)c1 [Example 42],chromatographic logP,[1]; [2],4.09
CO/N=C/c1cccc(-c2cc(OC(F)(F)F)ccc2NC(=O)c2c(C)nn(C)c2F)c1 [Example 43],chromatographic logP,[1]; [2],4.06
CO/N=C/c1cccc(-c2cc(C(F)(F)F)cc(Cl)c2NC(=O)c2c(C)nn(C)c2F)c1 [Example 44],chromatographic logP,[1]; [2],4.63
CO/N=C/c1ccc(-c2ccccc2NC(=O)c2c(C)nn(C)c2F)cc1Cl [Example 46],chromatographic logP,[1]; [2],3.47
same,pest or weed control at 100 g/ha,Podosphaera leucotricha,100%
same,pest or weed control at 100 g/ha,Sphaerotheca fuiginea,100%
same,pest or weed control at 100 g/ha,Venturia inaequalis,100%
CO/N=C/c1ccc(-c2ccccc2NC(=O)c2c(C)nn(C)c2F)cc1C [Example 47],chromatographic logP,[1]; [2],3.3
same,pest or weed control at 100 g/ha,Podosphaera leucotricha,100%
same,pest or weed control at 100 g/ha,Sphaerotheca fuiginea,100%
same,pest or weed control at 100 g/ha,Venturia inaequalis,100%
CO/N=C\c1cc(-c2ccccc2NC(=O)c2c(C)nn(C)c2F)ccc1/C=N/OC [Example 48],chromatographic logP,[1]; [2],3.25
CO/N=C/c1ccc(-c2c(C)cccc2NC(=O)c2c(C)nn(C)c2F)cc1Cl [Example 50],chromatographic logP,[1]; [2],3.89
same,pest or weed control at 100 g/ha,Podosphaera leucotricha,100%
same,pest or weed control at 100 g/ha,Sphaerotheca fuiginea,100%
same,pest or weed control at 100 g/ha,Venturia inaequalis,100%
CCC(C)O/N=C(/C)c1ccc(-c2ccccc2NC(=O)c2c(C)nn(C)c2F)cc1 (stereo not shown) [Example 51],chromatographic logP,[1]; [2],4.67
Cc1nn(C)c(F)c1C(=O)Nc1ccccc1-c1ccc(/C=N\O)cc1 [Example 53],chromatographic logP,[1]; [2],2.24
CCCCO/N=C\c1ccc(-c2ccccc2NC(=O)c2c(C)nn(C)c2F)cc1 [Example 55],chromatographic logP,[1]; [2],4.33
